Test results as given in patent US7649002B2, “(3,5-dimethylpiperidin-1yl)(4-phenylpyrrolidin-3-yl)methanone derivatives as MCR4 agonists” (Pfizer Inc, priority 2004, dated 2010).
pEC50: −log10 of the molar value. Counter-ions that a name gives are not always drawn. Blank lines part the entries; values can stand above or below the compound they belong to.

Columns and labels:
[1] = target: T1, human MCR4 receptor (Homo sapiens, UniProt P32245); experiment: MCR4 standard functional assay (Protocol C): cAMP AlphaScreen in HEK cells; type: cell-based; details: Table 5
T1 construct: expressed in transfected cells
T1 sequence (P32245 whole entry): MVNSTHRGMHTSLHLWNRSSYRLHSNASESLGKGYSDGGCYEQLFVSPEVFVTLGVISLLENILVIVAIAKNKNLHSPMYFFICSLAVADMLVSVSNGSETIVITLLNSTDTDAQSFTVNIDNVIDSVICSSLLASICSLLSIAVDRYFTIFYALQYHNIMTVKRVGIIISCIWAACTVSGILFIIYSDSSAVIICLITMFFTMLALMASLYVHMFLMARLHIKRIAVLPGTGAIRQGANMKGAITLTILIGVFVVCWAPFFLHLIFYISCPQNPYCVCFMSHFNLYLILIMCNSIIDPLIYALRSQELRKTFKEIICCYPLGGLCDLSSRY
Experimental: Stimulation of adenylate cyclase following receptor activation is a widely used measure of functional activity for a number of receptor systems. The functional assay to measure cyclic AMP (cAMP) utilises human embryonic kidney (HEK) cells that stably express the human melanocortin MCR1, MCR3 or MCR4 receptor. Activation of MCR1, MCR3 or MCR4 receptors stimulates adenylate cyclase, generating cAMP, which is measured using AlphaScreen™ (PerkinElmer assay kits.
The AlphaScreen™ cAMP assay kit consists of ‘donor beads’, ‘acceptor beads’, and biotinylated cAMP which links the different beads together. Excitation of this linked complex at […] in the Fusion™-α microplate analyser results in light emission between […].
(i) MCR1. MCR3 and MCR4 Standard Functional Assay Methodology [Assay Protocol A, B AND C Respectively]
Determination of activity against the human MCR1, MCR3 and MCR4 receptor subtypes was carried out for compounds according to the present invention using three immortalised human embryonic kidney (HEK) cell lines that had been biologically engineered to express the human melanocortin MCR1, MCR3 or MCR4 receptor subtypes. These cell lines were engineered using protocols akin to those outlined by Gouarderes et al (Gouarderes, C., (2002) Neuroscience, 115(2); 349-361).
Such-compound-induced activation of these MCR1, MCR3 or MCR4 receptors lead to the stimulation of the cellular enzyme adenylate cyclase, which in turn lead to the cellular generation, and intra-cellular accumulation, of cyclic adenosine monophosphate (cAMP). […] Intracellular levels of cAMP were quantified using the commercially available AlphaScreen™ assay kits from PerkinElmer. A detailed assay protocol and an explanation of the concept underlying this kit is available through the PerkinElmer website (www.perkinelmer.com). The protocol listed below provides a summary this information.
The quantity of intracellular cAMP produced by compound-induced activation of the MCR1, MCR3 and MCR4 receptors in these three cell lines was measured using a Fusion™-α microplate analyser set to stimulate at a wavelength of 680 nm and to measure the energy emitted at wave lengths between […]. Compound-induced increases in MCR1, MCR3 or MCR4 receptor activation were subsequently quantified as a decrease in the quantity of light emitted at wavelengths between […]. Data analysis was subsequently performed using a curve-fitting program and the apparent potency of the test compound (expressed as an EC50 and defined as the effective compound concentration that elicited 50% of the maximum compound-induced response) extrapolated from the fitted curve.
Stimulation buffer (as per AlphaScreen™ protocol): HBSS supplemented with 0.5 mM IBMX, 5 mM HEPES, 0.1% (w/v) BSA and 10 mM MgCl2. […]

[2] = target: T2, human MCR5 receptor (Homo sapiens, UniProt P33032); experiment: MCR5 standard functional assay (Protocol D): CHO-K1-MC5R-CRE-β-lactamase reporter; type: cell-based; details: Table 6; for Selectivity MCR5/MCR4: MCR4 by Protocol E; for pEC50: Protocol D
T2 construct: expressed in transfected cells
T2 sequence (P33032 whole entry): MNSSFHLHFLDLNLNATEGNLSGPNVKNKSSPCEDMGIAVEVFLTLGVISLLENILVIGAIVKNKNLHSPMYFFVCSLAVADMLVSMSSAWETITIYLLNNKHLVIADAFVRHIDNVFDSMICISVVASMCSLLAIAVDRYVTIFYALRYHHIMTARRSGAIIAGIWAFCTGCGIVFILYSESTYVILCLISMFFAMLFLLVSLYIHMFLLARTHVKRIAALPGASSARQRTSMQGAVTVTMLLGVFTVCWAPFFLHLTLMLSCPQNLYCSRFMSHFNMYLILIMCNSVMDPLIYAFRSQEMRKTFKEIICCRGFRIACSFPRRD
From the text: These cell lines were engineered using protocols akin to those outlined by Zaccolo et al (Zaccolo, M., (2000) Nature, 2(1); 25-29). Compound-induced activation of the MCR5 or MCR4 receptors in these two cell lines stimulated the production, and intracellular accumulation, of the enzyme β-lactamase. The quantity of β-lactamase enzyme produced was directly proportional to the degree to which the test compound activated the MCR5 or MCR4 receptors present on these cells and was quantified using the P-lactamase gene reporter analysis kit that is commercially available from Invitrogen Life Technologies. An in-depth description of this technology and assay protocols are available from the Invitrogen web site (www.invitrogen.com). The protocol listed below provides a summary of that assay methodology. The quantity of β-lactamase enzyme produced by compound-induced activation of the MCR5 or MCR4 receptors expressed in these cell lines was quantified using a LjI Biosystems Analyst™ HT 96.384 plate reader set to excite at a wave length of 405 nm, and measure the energy emitted at wave lengths of 450 nm and 530 nm. Cellular responses were quantified by dividing the measured energy emitted at a wavelength of 450 nm by the measured energy emitted at a wavelength of 530 nm. […] CCF4-AM was dissolved in 100% DMSO to give a final solution concentration of 1 mM. This solution was termed Solution A. Probenecid was dissolved in 200 mM NaOH to give a final solution concentration of 200 mM. This solution was termed Solution D. Composition of the β-lactamase assay dye solution: for 1072 μL of assay dye solution combine: 12 μL of Solution A, 60 μL of Solution B, 925 μL of Solution C and 75 μL of Solution D. […] Cells were grown in T225 vent cap flasks containing 50 ml of growth medium and maintained in a cell incubator at a temperature of 37° C. and in an environment containing 5% CO2. The composition of the growth medium for the CHO-K1-MC5R-CRE-β-lactamase was 90% v/v DMEM supplemented with; Glutamax-1, 25 mM HEPES, 10% v/v foetal calf serum (FCS), 1 mM sodium pyruvate, 0.1 mM non essential amino acids and 800 μg/ml genetic in. For the CHO-K1-MC4R-CRE-β-lactamase this growth media was further supplemented with […] Zeocin. Cells were harvested when they reached 80-90% confluency by first removing the existing growth medium and then washing with PBS that had been pre-warmed to a temperature of 37° C. This PBS was then removed and 5 ml of cell dissociation fluid added to the flask. These cells were incubated for 5 minutes in a cell incubator set at a temperature of 37° C. and in an environment containing 5% CO2 to detach the cells. When cells were detached, pre-warmed growth media was added, the cells re-suspended and mixed gently to achieve a single cell suspension by pipetting. This cell suspension was then used for experimentation, or transferred into a new T225 flask to perpetuate the cell culture. On the first day of the assay cells were harvested as described above. […] For each assay the cell plates were then retuned to a cell incubator maintained at a temperature of 37° C. and in an environment containing 5% CO2 overnight before performing the assay on the second assay day. […] For the MCR4 improved functional assay methodology the solution of cyclohexamide was not added. Subsequently, 10 μL of the test compound solution was transferred to the assay plate. […] After this incubation period the plate was removed from the incubator, 10 μL of the […] assay dye solution was added to each well and then the plate returned to the cell incubator.

[3] = target: T1, human MCR4 receptor; experiment: MCR4 improved functional assay (Protocol E): CHO-K1-MC4R-CRE-β-lactamase reporter; type: cell-based
From the text: (ii) MCR5 Standard Functional Assay Methodology and MCR4 Improved Functional Assay Methodology [Assay Protocol D and E Respectively] […] These cell lines were engineered using protocols akin to those outlined by Zaccolo et al (Zaccolo, M., (2000) Nature, 2(1); 25-29). Compound-induced activation of the MCR5 or MCR4 receptors in these two cell lines stimulated the production, and intracellular accumulation, of the enzyme β-lactamase. The quantity of β-lactamase enzyme produced was directly proportional to the degree to which the test compound activated the MCR5 or MCR4 receptors present on these cells and was quantified using the P-lactamase gene reporter analysis kit that is commercially available from Invitrogen Life Technologies. An in-depth description of this technology and assay protocols are available from the Invitrogen web site (www.invitrogen.com). The protocol listed below provides a summary of that assay methodology. The quantity of β-lactamase enzyme produced by compound-induced activation of the MCR5 or MCR4 receptors expressed in these cell lines was quantified using a LjI Biosystems Analyst™ HT 96.384 plate reader set to excite at a wave length of 405 nm, and measure the energy emitted at wave lengths of 450 nm and 530 nm. Cellular responses were quantified by dividing the measured energy emitted at a wavelength of 450 nm by the measured energy emitted at a wavelength of 530 nm. […] CCF4-AM was dissolved in 100% DMSO to give a final solution concentration of 1 mM. This solution was termed Solution A. Probenecid was dissolved in 200 mM NaOH to give a final solution concentration of 200 mM. This solution was termed Solution D. Composition of the β-lactamase assay dye solution: for 1072 μL of assay dye solution combine: 12 μL of Solution A, 60 μL of Solution B, 925 μL of Solution C and 75 μL of Solution D. […] Cells were grown in T225 vent cap flasks containing 50 ml of growth medium and maintained in a cell incubator at a temperature of 37° C. and in an environment containing 5% CO2. The composition of the growth medium for the CHO-K1-MC5R-CRE-β-lactamase was 90% v/v DMEM supplemented with; Glutamax-1, 25 mM HEPES, 10% v/v foetal calf serum (FCS), 1 mM sodium pyruvate, 0.1 mM non essential amino acids and 800 μg/ml genetic in. For the CHO-K1-MC4R-CRE-β-lactamase this growth media was further supplemented with […] Zeocin. Cells were harvested when they reached 80-90% confluency by first removing the existing growth medium and then washing with PBS that had been pre-warmed to a temperature of 37° C. This PBS was then removed and 5 ml of cell dissociation fluid added to the flask. These cells were incubated for 5 minutes in a cell incubator set at a temperature of 37° C. and in an environment containing 5% CO2 to detach the cells. When cells were detached, pre-warmed growth media was added, the cells re-suspended and mixed gently to achieve a single cell suspension by pipetting. This cell suspension was then used for experimentation, or transferred into a new T225 flask to perpetuate the cell culture. […] For each assay the cell plates were then retuned to a cell incubator maintained at a temperature of 37° C. and in an environment containing 5% CO2 overnight before performing the assay on the second assay day. […] For the MCR4 improved functional assay methodology the solution of cyclohexamide was not added. Subsequently, 10 μL of the test compound solution was transferred to the assay plate. The assay plate was then transferred to a cell incubator, set at 37° C. and in an environment containing 5% CO2, and left for 4 hours for the MCR4 improved assay methodology, or 5 hours for the MCR5 standard assay methodology. After this incubation period the plate was removed from the incubator, 10 μL of the […] assay dye solution was added to each well and then the plate returned to the cell incubator.

[4] = system: men with psychogenic and organic ED; details: cited from earlier work
[5] = functional potency at the MC4 receptor (EC50), Protocols C or E

pEC50 [1]: 7.35
Compound: Cc1ccc([C@@]2(O)[C@H](C)CN(C(=O)[C@@H]3CN(C(C)(C)C)C[C@H]3c3ccc(F)cc3F)C[C@@H]2C)cc1 [Example 4, (3R,4R,5S)-1-{[(3S,4R)-1-tert-Butyl-4-(24-difluorophenyl)pyrrolidin-3-yl]carbonyl}-3,5-dimethyl-4-(4-methylphenyl)piperidin-4-ol]

Compound: C[C@@H]1CN(C(=O)[C@@H]2CN(C(C)(C)C)C[C@H]2c2ccc(F)cc2F)C[C@H](C)[C@@]1(O)c1ccc(F)cc1F.Cl [Example 15, (3R,4R,5S)-1-{[(3S,4R)-1-tert-butyl-4-(2,4-difluorophenyl)pyrrolidin-3-yl]carbonyl}-4-(2,4-difluorophenyl)-3,5-dimethylpiperidin-4-ol hydrochloride]
Selectivity MCR5/MCR4 [2]: 556 | pEC50 [2]: 5.46 | EC50 ([3]; MCR4 EC50 (nM), Table 6): 6.3 nM | pEC50 [3, 5]: > 7.30

Selectivity MCR5/MCR4 [2]: 772 | pEC50 [2]: 4.75 | pEC50 ([3]; Protocols C or E, read-out: functional potency at the MC4 receptor (EC50)): > 7.30 | pEC50 ([3]; Table 6, read-out: MCR4 EC50): 7.64
Compound: C[C@@H]1CN(C(=O)[C@@H]2CN(C(C)(C)C)C[C@H]2c2ccc(F)cc2F)C[C@H](C)[C@@]1(O)c1ccccn1.Cl [Example 22, (3R,4R,5S)-1-[(3S,4R)-1-tert-Butyl-4-(2,4-difluorophenyl)pyrrolidin-3-yl]carbonyl-3,5-dimethyl-4-pyridin-2-ylpiperidin-4-ol hydrochloride]

Compound: CCN1C[C@@H](C(=O)N2C[C@@H](C)[C@](O)(c3cccc(F)c3)[C@@H](C)C2)[C@H](c2ccc(F)cc2F)C1 [Example 53, (3R,4R,5S)-1-{[(3S,4R)-4-(2,4-difluorophenyl)-1-ethylpyrrolidin-3-yl]carbonyl}-4-(3-fluorophenyl)-3,5-dimethylpiperidin-4-ol hydrochloride]
pEC50 [3, 5]: > 7.30

Compound: Melanotan II
doses after which increased sexual desire was reported ([4]; 13/19 doses, vs placebo P<0.01): 68% | subjects with severe nausea ([4]; dose of 0.025 mg/kg): 12.9% | men with penile erection ([4]; in the absence of sexual stimulation, 20 men with psychogenic and organic ED): 17 of 20 | mean duration of Rigiscan tip rigidity>80% ([4]; men with ED, monitored 6 hours): 41 min
